Measured values: patent US12637471B2, “Heterocyclic compounds, compositions, methods of preparation and uses thereof” (Organon R&D Finland Ltd, priority 2021, dated 2026)
Values belong to the molecule of their own block, whether it stands above or below them.

Assays:
Assay type in all cases: biochemical
[1] = target: T1, Recombinant human aldo-keto reductase family 1 member C2 (AKR1C2) protein (Homo sapiens, UniProt P52895); assay: Inhibition of the aldo-keto reductase family 1 member C2, 3H-dihydrotestosterone conversion; conditions: inhibitor at 10 μM
T1 construct: made in house; host or cells: Sf-9 insect cells (baculovirus)
T1 sequence (P52895 1-323): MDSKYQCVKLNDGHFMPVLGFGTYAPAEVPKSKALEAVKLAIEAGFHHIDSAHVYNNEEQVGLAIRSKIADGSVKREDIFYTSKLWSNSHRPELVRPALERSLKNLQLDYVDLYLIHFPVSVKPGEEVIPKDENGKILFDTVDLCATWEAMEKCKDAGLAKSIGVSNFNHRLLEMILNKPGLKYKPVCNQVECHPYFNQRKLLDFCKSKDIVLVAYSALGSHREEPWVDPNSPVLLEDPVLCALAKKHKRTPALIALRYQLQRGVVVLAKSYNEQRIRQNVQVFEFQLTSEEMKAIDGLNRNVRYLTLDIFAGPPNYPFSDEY
Summary of the method: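 Sf-9-expressed enzyme (13.6 nM) incubated 45 min at 37 °C in 20 mM KH2PO4 pH 7.4 with 1 mM NADPH, 6.25 nM [3H]dihydrotestosterone and 10 μM compound (1% DMSO). After TCA stop, substrate and 5α-androstane-3α,17β-diol resolved by UPLC with radio-detection; inhibition from percent conversion.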

[2] = target: T2, Recombinant human AKR1C3 (17β-HSD5) protein (Homo sapiens, UniProt P42330); assay: Inhibition of AKR1C3 (17β-hydroxysteroid dehydrogenase type 5) enzyme, fluorescence assay; conditions: inhibitor at 500 nM
T2 construct: made in house; host or cells: E. coli
T2 sequence (P42330 1-323): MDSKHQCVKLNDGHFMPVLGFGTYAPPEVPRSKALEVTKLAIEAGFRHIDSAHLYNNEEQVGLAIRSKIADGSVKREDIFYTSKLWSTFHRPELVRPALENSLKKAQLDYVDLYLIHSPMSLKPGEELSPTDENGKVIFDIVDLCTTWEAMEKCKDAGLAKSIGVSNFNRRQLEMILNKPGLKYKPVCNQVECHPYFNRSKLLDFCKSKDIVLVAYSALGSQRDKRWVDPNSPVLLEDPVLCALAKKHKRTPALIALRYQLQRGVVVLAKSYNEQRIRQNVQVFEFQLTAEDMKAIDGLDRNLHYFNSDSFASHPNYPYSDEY
Summary of the method: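 E. coli-expressed human AKR1C3 (27 nM) in 20 mM KH2PO4, 1 mM EDTA, pH 7.4, with 1 μM pyranoquinolinone ketone substrate, 1 mM NADPH and inhibitor at 500 nM, 1% DMSO, 60–120 min at RT. Fluorescent alcohol product (ex 420/em 510 nm) quantified against standards; inhibition derived from conversion percentages.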

[3] = target: T3, 17β-Hydroxysteroid Dehydrogenase Type 2 Enzyme (17β-HSD2) (Homo sapiens, UniProt P37059); assay: Inhibition of the 17β-hydroxysteroid dehydrogenase type 2 enzyme, 3H-testosterone conversion; conditions: inhibitor at 10 μM
T3 construct: made in house; host or cells: Sf-9 insect cells (baculovirus)
T3 sequence (P37059 1-387): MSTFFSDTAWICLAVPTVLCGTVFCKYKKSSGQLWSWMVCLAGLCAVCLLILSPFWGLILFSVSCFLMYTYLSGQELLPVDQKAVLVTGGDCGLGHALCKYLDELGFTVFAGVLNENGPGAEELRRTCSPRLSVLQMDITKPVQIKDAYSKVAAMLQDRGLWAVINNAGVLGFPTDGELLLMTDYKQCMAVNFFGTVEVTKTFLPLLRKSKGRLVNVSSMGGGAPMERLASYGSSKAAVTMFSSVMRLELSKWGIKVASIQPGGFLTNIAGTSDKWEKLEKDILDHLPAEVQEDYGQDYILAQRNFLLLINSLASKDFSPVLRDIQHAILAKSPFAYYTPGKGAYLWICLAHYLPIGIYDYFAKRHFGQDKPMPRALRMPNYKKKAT
Summary of the method: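 Recombinant human 17β-HSD2 (Sf-9/baculovirus; 105 nM) incubated with 56.25 nM ³H-testosterone and 1 mM NAD in 20 mM KH2PO4 pH 8.5, 1 mM EDTA, 1% DMSO, 30 min at RT, inhibitor 10 μM. Reaction stopped with TCA; conversion to ³H-androstenedione by radio-UPLC gives percent inhibition.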

SMILES: N#CC(=C1CCN(C(=O)N2CCc3[nH]ncc3C2)CC1)c1cccc2cn[nH]c12 [Compound 71, 2-(1H-indazol-7-yl)-2-(1-(4,5,6,7-tetrahydro-1H-pyrazolo[4,3-c]pyridine-5-carbonyl)piperidin-4-ylidene)acetonitrile]
inhibition at 10 µM [1]: 12% | inhibition at 0.5 µM [2]: 99% | inhibition at 10 µM [3]: 29%

SMILES: N#CC(=C1CCN(C(=O)N2CCn3cncc3C2)CC1)c1cccc2cn[nH]c12 [Compound 72, 2-(1H-indazol-7-yl)-2-(1-(5,6,7,8-tetrahydroimidazo[1,5-a]pyrazine-7-carbonyl)piperidin-4-ylidene)acetonitrile]
inhibition at 10 µM [1]: 9% | inhibition at 0.5 µM [2]: 98% | inhibition at 10 µM [3]: 26%

SMILES: COCC1CCN(C(=O)N2CCC(=C(C#N)c3ccc(F)cc3F)CC2)CC1 [Compound 73, 2-(2,4-difluorophenyl)-2-(1-(4-(methoxymethyl)piperidine-1-carbonyl)piperidin-4-ylidene)acetonitrile]
inhibition at 10 µM [1]: 19% | inhibition at 0.5 µM [2]: 92% | inhibition at 10 µM [3]: 21%

SMILES: N#CC(=C1CCN(C(=O)N2CCC(S(N)(=O)=O)CC2)CC1)c1ccc(Cl)s1 [Compound 77, 1-(4-((5-chlorothiophen-2-yl)(cyano)methylene)piperidine-1-carbonyl)piperidine-4-sulfonamide]
inhibition at 10 µM [1]: 24% | inhibition at 0.5 µM [2]: 96% | inhibition at 10 µM [3]: 19%

SMILES: COC1CCN(C(=O)N2CCC(=C(C#N)c3ccc(Cl)s3)CC2)CC1 [Compound 78, 2-(5-chlorothiophen-2-yl)-2-(1-(4-methoxypiperidine-1-carbonyl)piperidin-4-ylidene)acetonitrile]
inhibition at 10 µM [1]: 15% | inhibition at 0.5 µM [2]: 99% | inhibition at 10 µM [3]: 27%

SMILES: COC[C@@H]1CCCN1C(=O)N1CCC(=C(C#N)c2ccc(Cl)cc2)CC1 [Compound 82, (S)-2-(4-chlorophenyl)-2-(1-(2-(methoxymethyl)pyrrolidine-1-carbonyl)piperidin-4-ylidene)acetonitrile]
inhibition at 10 µM [1]: 3% | inhibition at 0.5 µM [2]: 100% | inhibition at 10 µM [3]: 28%

SMILES: N#CC(=C1CCN(C(=O)N2CCc3nocc3C2)CC1)c1ccc(F)cn1 [Compound 84, 2-(5-fluoropyridin-2-yl)-2-(1-(4,5,6,7-tetrahydroisoxazolo[4,3-c]pyridine-5-carbonyl)piperidin-4-ylidene)acetonitrile]
inhibition at 10 µM [1]: 6% | inhibition at 0.5 µM [2]: 98% | inhibition at 10 µM [3]: 23%

SMILES: N#CC(=C1CCN(C(=O)N2CC(CO)C2)CC1)c1ccc(F)cc1 [Compound 85, 2-(4-fluorophenyl)-2-(1-(3-(hydroxymethyl)azetidine-1-carbonyl)piperidin-4-ylidene)acetonitrile]
inhibition at 10 µM [1]: 9% | inhibition at 0.5 µM [2]: 72% | inhibition at 10 µM [3]: 27%

SMILES: N#CC(=C1CCN(C(=O)N2CCc3nocc3C2)CC1)c1ccc(C(F)(F)F)cc1 [Compound 87, 2-(1-(4,5,6,7-tetrahydroisoxazolo[4,3-c]pyridine-5-carbonyl)piperidin-4-ylidene)-2-(4-(trifluoromethyl)phenyl)acetonitrile]
inhibition at 10 µM [1]: 31% | inhibition at 0.5 µM [2]: 99% | inhibition at 10 µM [3]: 23%

SMILES: COC1CCN(C(=O)N2CCC(=C(C#N)c3ccc(F)cc3F)CC2)CC1 [Compound 91, 2-(2,4-difluorophenyl)-2-(1-(4-methoxypiperidine-1-carbonyl)piperidin-4-ylidene)acetonitrile]
inhibition at 10 µM [1]: 23% | inhibition at 0.5 µM [2]: 99% | inhibition at 10 µM [3]: 23%

SMILES: CCOC1CCN(C(=O)N2CCC(=C(C#N)c3cccc4[nH]ncc34)CC2)CC1 [Compound 92, 2-(1-(4-ethoxypiperidine-1-carbonyl)piperidin-4-ylidene)-2-(1H-indazol-4-yl)acetonitrile]
inhibition at 10 µM [1]: 6% | inhibition at 0.5 µM [2]: 96% | inhibition at 10 µM [3]: 30%

Other lines, results leading:

inhibition at 10 µM [1]: 9% | inhibition at 0.5 µM [2]: 98% | inhibition at 10 µM [3]: 17%
SMILES: N#CC(=C1CCN(C(=O)N2CCC(CO)CC2)CC1)c1ccc(Cl)cc1 [Compound 74, 2-(4-chlorophenyl)-2-(1-(4-(hydroxymethyl)piperidine-1-carbonyl)piperidin-4-ylidene)acetonitrile]

inhibition at 10 µM [1]: 13% | inhibition at 0.5 µM [2]: 94% | inhibition at 10 µM [3]: 23%
SMILES: COCC1CCN(C(=O)N2CCC(=C(C#N)c3ccc(Cl)s3)CC2)CC1 [Compound 75, 2-(5-chlorothiophen-2-yl)-2-(1-(4-(methoxymethyl)piperidine-1-carbonyl)piperidin-4-ylidene)acetonitrile]

inhibition at 10 µM [1]: 6% | inhibition at 0.5 µM [2]: 99% | inhibition at 10 µM [3]: 20%
SMILES: N#CC(=C1CCN(C(=O)N2CCC(CO)CC2)CC1)c1ccc(C(F)(F)F)cc1 [Compound 76, 2-(1-(4-(hydroxymethyl)piperidine-1-carbonyl)piperidin-4-ylidene)-2-(4-(trifluoromethyl)phenyl)acetonitrile]

inhibition at 10 µM [1]: 6% | inhibition at 0.5 µM [2]: 99% | inhibition at 10 µM [3]: 10%
SMILES: COC1CCN(C(=O)N2CCC(=C(C#N)c3ccc(Cl)cc3)CC2)CC1 [Compound 79, 2-(4-chlorophenyl)-2-(1-(4-methoxypiperidine-1-carbonyl)piperidin-4-ylidene)acetonitrile]

inhibition at 10 µM [1]: 7% | inhibition at 0.5 µM [2]: 99% | inhibition at 10 µM [3]: 12%
SMILES: N#CC(=C1CCN(C(=O)N2CCC(O)CC2)CC1)c1cccc(Cl)c1 [Compound 80, 2-(3-chlorophenyl)-2-(1-(4-hydroxypiperidine-1-carbonyl)piperidin-4-ylidene)acetonitrile]

inhibition at 10 µM [1]: -7% | inhibition at 0.5 µM [2]: 95% | inhibition at 10 µM [3]: 10%
SMILES: COC1CCN(C(=O)N2CCC(=C(C#N)c3ccc(Cl)cn3)CC2)CC1 [Compound 81, 2-(5-chloropyridin-2-yl)-2-(1-(4-methoxypiperidine-1-carbonyl)piperidin-4-ylidene)acetonitrile]

inhibition at 10 µM [1]: 0% | inhibition at 0.5 µM [2]: 80% | inhibition at 10 µM [3]: 27%
SMILES: N#CC(=C1CCN(C(=O)N2CCC(O)CC2)CC1)c1cncc(Cl)c1 [Compound 86, 2-(5-chloropyridin-3-yl)-2-(1-(4-hydroxypiperidine-1-carbonyl)piperidin-4-ylidene)acetonitrile]

inhibition at 10 µM [1]: 13% | inhibition at 0.5 µM [2]: 99% | inhibition at 10 µM [3]: 26%
SMILES: N#CC(=C1CCN(C(=O)N2CCC(CO)CC2)CC1)c1cccc(Cl)c1 [Compound 88, 2-(3-chlorophenyl)-2-(1-(4-(hydroxymethyl)piperidine-1-carbonyl)piperidin-4-ylidene)acetonitrile]

inhibition at 10 µM [1]: 18% | inhibition at 0.5 µM [2]: 98% | inhibition at 10 µM [3]: 15%
SMILES: N#CC(=C1CCN(C(=O)N2CCc3nocc3C2)CC1)c1cccc(Cl)c1 [Compound 89, 2-(3-chlorophenyl)-2-(1-(4,5,6,7-tetrahydroisoxazolo[4,3-c]pyridine-5-carbonyl)piperidin-4-ylidene)acetonitrile]

inhibition at 10 µM [1]: 9% | inhibition at 0.5 µM [2]: 99% | inhibition at 10 µM [3]: 30%
SMILES: N#CC(=C1CCN(C(=O)N2CCC(C(F)(F)F)CC2)CC1)c1ccc(Cl)cc1 [Compound 90, 2-(4-chlorophenyl)-2-(1-(4-(trifluoromethyl)piperidine-1-carbonyl)piperidin-4-ylidene)acetonitrile]
